Laboratory results as given in patent US20210379057A1, “NUTLIN-3A FOR USE IN TREATING A MYCOBACTERIUM TUBERCULOSIS INFECTION” (Massachusetts Institute of Technology, priority 2018, published 2021).

Columns and labels:
[1] = tested on: Mycobacterium tuberculosis (Mtb) in primary human CD14+ monocyte-derived macrophages; format: cell-based
Mtb infected macrophages = experiment: Macrophage death in Mtb infected macrophages; conditions: Mtb infected macrophages treated with compound
p53 = format: cell-based, human

| Compound | Mtb control (bacterial survival, ratio of live GFP+ to total mCherry+ pixels) [1] | GFP+/RFP+ pixel area [1] | macrophage death (Mtb infected macrophages) | expression of p53 (p53) |
| --- | --- | --- | --- | --- |
| Cc1ccc2nc(NCCN)c3ncc(C)n3c2c1 [BMS-345541] | worsened bacterial control |  |  |  |
| O=C(Nc1cc(Cl)cc2c1[nH]c1cnccc12)c1cccnc1 [PS-1145] | worsened bacterial control |  |  |  |
| NNC(=O)c1ccncc1 [isoniazid] |  | decrease in the GFP+/RFP+ pixel area |  |  |
| COc1ccc(C2=N[C@@H](c3ccc(Cl)cc3)[C@@H](c3ccc(Cl)cc3)N2C(=O)N2CCNC(=O)C2)c(OC(C)C)c1 [nutlin-3a] | significantly increased Mtb control |  | without increasing macrophage death | enhanced expression of p53 |
